The subject of assay [1] is myc2345 (DNA, G4) TGAGGGTGGGGAGGGTGGGGAA
The assay can be described thus: fluorescence emission titration. To be noted: K+ 100 mM; 10 mM lithium cacodylate, pH 7.3; 2 μM compound; per motif (2 compounds per G-quadruplex); per site.

For assay [2], the system named is ds17 (DNA, duplex) CCAGTTCGTAGTAACCC/GGGTTACTACGAACTGG
Briefly: fluorescence emission titration. To be noted: K+ 100 mM; 10 mM lithium cacodylate, pH 7.3; 2 μM compound; per motif (2 compounds per 5 base pairs); per site.

Assay [3] has as its system ss17 (DNA, single strand) CCAGTTCGTAGTAACCC
Briefly: fluorescence emission titration. The settings on record: K+ 100 mM; 10 mM lithium cacodylate, pH 7.3; 2 μM compound; per motif of 5 bases; per site.

In assay [4] the test system is TBA (DNA, G4) GGTTGGTGTGGTTGG
Briefly: fluorescence emission titration. The settings on record: K+ 100 mM; 10 mM lithium cacodylate, pH 7.3; 2 μM compound; per site.

In assay [5] the test system is PDGF-A (DNA, G4) GGAGGCGGGGGGGGGGGGGCGGGGGCGGGGGCGGGGGAGGGGCGCGGC
Briefly: fluorescence emission titration. The settings on record: K+ 100 mM (DNA annealed in 25 mM KCl); 10 mM lithium cacodylate, pH 7.3; 2 μM compound.

Assay [6] relates to TBA (DNA, G4) GGTTGGTGTGGTTGG
Briefly: fluorescence enhancement and lifetime (TCSPC). To be noted: K+ 100 mM; 10 mM lithium cacodylate, pH 7.3; 2 μM compound.

Assay [7] has as its system ss17 (DNA, single strand) CCAGTTCGTAGTAACCC
The assay can be described thus: fluorescence enhancement and lifetime (TCSPC). To be noted: K+ 100 mM; 10 mM lithium cacodylate, pH 7.3; 2 μM compound.

Assay [8] deals with PDGF-A (DNA, G4) GGAGGCGGGGGGGGGGGGGCGGGGGCGGGGGCGGGGGAGGGGCGCGGC
Briefly: fluorescence enhancement and lifetime (TCSPC). To be noted: K+ 100 mM (DNA annealed in 25 mM KCl); 10 mM lithium cacodylate, pH 7.3; 2 μM compound.

The test system of assay [9] is ds17 (DNA, duplex) CCAGTTCGTAGTAACCC/GGGTTACTACGAACTGG
Briefly: fluorescence enhancement and lifetime (TCSPC). The settings on record: K+ 100 mM; 10 mM lithium cacodylate, pH 7.3; 2 μM compound.

Assay [10] concerns myc2345 (DNA, G4) TGAGGGTGGGGAGGGTGGGGAA
The assay can be described thus: fluorescence enhancement and lifetime (TCSPC). The settings on record: K+ 100 mM; 10 mM lithium cacodylate, pH 7.3; 2 μM compound.

The text below walks through data of PMC4991273 (2016).

As to `CCCn1c2cccc3oc4cccc5c4c(c4c1cccc4[n+]5CCC)-c32`, the K a is recorded as 8.4 ± 2.9 × 10^5 M^-1 in [1]; 2.1 ± 0.3 × 10^6 M^-1 in assay [2]; 1.0 ± 0.2 × 10^6 M^-1 in [3]; 1.2 ± 0.4 × 10^6 M^-1 in [4]; 1.6 ± 1.5 × 10^6 M^-1 in assay [5].

Regarding `c1cc2oc3cccc4c3c3c5c(cccc5[n+]4CCN4CCOCC4)n(CCN4CCOCC4)c(c1)c2-3`, the binding entry in [6], in assay [7], in assay [8], in [9] and in assay [10] was “yes” throughout.
